Read-outs that look alike come from different tables or passages of the source.
Assays:
[1] = test system: Pseudomonas aeruginosa biofilm; experiment: Static biofilm formation in microtiter dish wells (crystal violet binding); type: cell-based; details: 18 h
Protocol: (§1) Bacterial strains and culture conditions. Pseudomonas aeruginosa PAO1 or PAO1 derivatives were used for all experiments except where noted. For flow cell biofilm experiments, strains containing the GFP expression vector pMRP9-1 were used. Both flow cell and disc reactor biofilms were grown in 1% Tryptic Soy Broth (TSB) (Becton Dickinson, Sparks, Md.) as were planktonic cultures. All cultures were incubated at 37° C. unless otherwise indicated. For the static biofilm formation assay we used M63 minimal medium supplemented with glucose (0.2%), arginine (0.4%) and MgSO4 (1 mM).
Pseudomonas aeruginosa biofilms were studied in three different ways. To evaluate gallium-desferrioxamine as a biofilm-blocking agent, the biofilm formation under static growth conditions was measured in microtiter dish wells. Biofilms were grown under static conditions in 96-well microtiter dishes for 18 h at 37° C. in M63 medium with or without added agents as indicated. Attached biomass was stained with crystal violet and the degree of crystal violet staining was measured.
FIG. 2 illustrates the biofilm growth of Pseudomonas aeruginosa cells in polyvinylchloride microtiter dish wells after treatment for 18 hours with desferrioxamine, Ga, gentamicin, or desferrioxamine-Ga. The concentrations used for each compound were 1 μM for DFO, Ga and DFO-Ga, and 0.1 μg/mL for Gm. Attached biofilm biomass was determined by measuring crystal violet binding.

[2] = test system: Pseudomonas aeruginosa; experiment: Minimal inhibitory concentration on planktonic Pseudomonas aeruginosa, 96-well plates; type: cell-based; details: low iron medium
Excerpt: The effect of gallium-desferrioxamine on planktonic Pseudomonas aeruginosa was first examined in a low iron medium. […] When in the stationary phase, Pseudomonas aeruginosa is not effectively killed by antibiotics.
as §1
The minimal inhibitory concentrations (MICs) of various agents were determined by using 96-well plates. Each well contained 100 μl of 1% TSB plus test compound. The inoculum was 5×10^5 Pseudomonas aeruginosa cells per well. To test the effect of agents on survival of stationary phase cells, cultures inoculated with 10^5 cells per ml and incubated for 18 h at 37° C. with aeration were used. The 18-h cultures were centrifuged. The pelleted cells were washed twice and suspended in a volume of fresh medium equal to the original culture volume. […] Viability was determined by plating dilutions on LB agar.

[3] = divalent ions; cited from earlier work
[4] = trivalent aluminium ions; cited from earlier work
[5] = ferric iron; cited from earlier work
[6] = test system: Pseudomonas aeruginosa biofilm; experiment: Flow cell biofilms, confocal microscopy (GFP, propidium iodide); type: cell-based; details: for killing of cells in six-day old biofilm (propidium iodide staining): 24 h
Protocol: as §1
The development of biofilms under a continuous flow of medium was followed in microscope observation chambers. To visualize biofilms grown under a continuous flow of medium, flow cells and confocal microscopy with an incubation temperature of 25° C. were used. An agent was added to the medium at the beginning of an experiment to determine whether the agent prevented biofilm formation. To determine the affect of an agent on mature biofilms, the biofilm was allowed to grow for six days prior to addition of the test compound. To discriminate live and dead cells, propidium iodide (PI, 30 μM, Sigma Chemical Co., St. Louis, Mo.) was used.
FIG. 3 compares 3D-reconstructed confocal microscope images of six-day old biofilms of Pseudomonas aeruginosa cells expressing GFP treated for 24 hours with gentamicin (0.1 μg/mL), desferrioxamine (1 μM), gallium (1 μM), and gallium-desferrioxamine (1 μM).
FIGS. 4-8 compare the survival of P. aeruginosa in a six-day old biofilms stained with propidium iodide under with different treatment.

[7] = test system: pvdA-GFP iron starvation promoter fusion; experiment: Iron starvation reporter (pvdA-GFP) fluorescence in PAO1; type: cell-based, Pseudomonas aeruginosa; details: 1 mM, 1 h at 37° C.
Protocol: To study the effect of DFO-Ga on iron regulation in the cell, a P. aeruginosa PAO1 strain-carrying GFP fused to an iron starvation promoter (pvdA-GFP) was constructed. The promoter is induced under iron limitation. Free living PAO1 carrying pvdA-GFP fusion, i.e., an iron starvation reporter fusion, 10^9 cell/ml in 1% TSB were exposed to […] Ga (1 mM), DFO (1 mM), or DFO-Ga (1 mM) for 1 h at 37° C.

[8] = systemic treatment, ischemia and reperfusion; cited from earlier work
[9] = test system: Pseudomonas aeruginosa biofilm; experiment: Spinning disc reactor biofilms, viable cell counts; type: cell-based; details: 24 h
Protocol: A spinning disc reactor as a third method was used to study biofilms. The biofilms grown under different conditions were tested and the activity of gallium-desferrioxamine against biofilms grown in a spinning disc reactor under continuous flow with high shear was examined. In this system biofilms are grown under a flow of medium and at high shear forces. After 24 h in a flow of medium, the polycarbonate chips with attached biofilm bacteria were removed from the spinning disc and washed 3 times in PBS. All incubations for spinning disc experiments were at 37° C. These biofilms were then exposed to the indicated agents in water for 24 h. Cells that detached from the biofilm during the treatment were enumerated by plating on LB agar. To estimate the number of remaining attached biofilm cells, the discs were placed in 1 ml PBS and the cells were dispersed by using a tissue homogenizer (Brinkman Homogenizer, Westbury, N.Y.). Viable cell numbers were determined by plating on LB agar. […] Furthermore, when gallium-desferrioxamine and gentamicin are used together, viability is reduced by almost 6 logs, leaving only a few viable cells.

[10] = test system: P. aeruginosa clinical isolates biofilms; experiment: Spinning disc reactor biofilms of 15 clinical isolates; type: cell-based, Pseudomonas aeruginosa; details: 24 h
Protocol: To verify that the sensitivities observed with laboratory strain of P. aeruginosa (PAO1) would hold with other clinical isolates of the bacterium, 15 clinical isolates of the same bacterium obtained from CF, eye and wound infected patients were screened. The group of isolates tested included mucoid strains, and strains with a variety of drug resistance profiles. The spinning-disc biofilm reactor system was utilized. In this system biofilms are grown under a flow of medium and at high shear forces. After 24 h in a flow of medium the polycarbonate chips with attached biofilm bacteria were removed from the spinning disc and washed 3 times in PBS. All incubations for spinning disc experiments were at 37° C. These biofilms were then exposed to Gm (50 μg/ml), DFO-Ga (1 mM) or a combination of gallium-desferrioxamine […] in water for 24 h. To estimate the number of remaining attached biofilm cells, we placed the discs in 1 ml PBS and dispersed the cells by using a tissue homogenizer (Brinkman Homogenizer, Westbury, N.Y.). Viable cell numbers were determined by plating on LB agar. […]

[11] = test system: stationary phase Pseudomonas aeruginosa cells; experiment: Survival of stationary phase Pseudomonas aeruginosa cells (plating on LB agar); type: cell-based; details: 24 h
Protocol: The minimal inhibitory concentrations (MICs) of various agents were determined by using 96-well plates. Each well contained 100 μl of 1% TSB plus test compound. The inoculum was 5×10^5 Pseudomonas aeruginosa cells per well. To test the effect of agents on survival of stationary phase cells, cultures inoculated with 10^5 cells per ml and incubated for 18 h at 37° C. with aeration were used. The 18-h cultures were centrifuged. The pelleted cells were washed twice and suspended in a volume of fresh medium equal to the original culture volume. The cells were incubated at 37° C. for an additional 2 h with shaking and then exposed to the test compounds at the indicated concentrations for 24 h. Viability was determined by plating dilutions on LB agar. FIG. 1 illustrates the survival of stationary phase Pseudomonas aeruginosa cells treated for 24 hours with desferrioxamine (DFO), gentamicin (Gm), gallium (Ga), gallium-desferrioxamine (DFO-Ga), DFO and Gm, Ga and Gm, and DFO-Ga and Gm. The concentrations used for each compound were 0.1 mM (shaded) or 1 mM (dark) for DFO, Ga or DFO-Ga and […] for Gm. […] Because gallium-desferrioxamine and gentamicin exert their antimicrobial effects via different mechanisms, the two agents were combined and the combined treatment results in a six-log reduction in viable cells.

[12] = test system: Staphylococcus aureus (MRSA strain) biofilm; experiment: Spinning disc reactor biofilms of MRSA S. aureus; type: cell-based; details: 1 mM, 24 h
Protocol: The effect of gallium-desferrioxamine against the drug resistant bacterial was investigated. The efficacy of DFO-Ga against common biofilm pathogens Staphylococcus aureus (MRSA strain) and Escherichia coli was examined. Biofilms were grown using the spinning disc reactor system as above. Spinning disc reactor biofilms with E. coli or MRSA S. aureus were treated for 24 h. The concentration of DFO-Ga in both treatments was (1 mM). In the E. coli treatment, the concentration of Gm was 10 μg/ml and for the combination of DFO-Ga (1 mM) and Gm (10 μg/ml).
As shown FIG. 12B, DFO-Ga was able to reduce the viable Staphylococcus aureus biofilm bacteria by approximately 3 log units.

[13] = test system: Pseudomonas aeruginosa; experiment: Rabbit cornea infection (keratitis) with P. aeruginosa, topical treatment; type: in vivo; details: 0.5% gentamicin eye drops
[14] = topical application, alkali burn; cited from earlier work

Molecule: CC(=O)N(O)CCCCCNC(=O)CCC(=O)N(O)CCCCCNC(=O)CCC(=O)N(O)CCCCCN [desferrioxamine]
- biofilm formation ([1]; 1 μM): does not affect biofilm formation
- growth inhibition (highest concentration without inhibition) [2]: > 1 mM
- complex formation constant [3]: ≤ 10^14
- complex formation constant [4]: 10^25
- complex formation constant [5]: 10^31
- killing of cells in six-day old biofilm (propidium iodide staining) ([6]; 1 mM): does not appear to kill cells in mushroom-like structures

Molecule: CC(=O)N([O-])CCCCCNC(=O)CCC(=O)N([O-])CCCCCNC(=O)CCC(=O)N([O-])CCCCCN.[Ga+3] [gallium-desferrioxamine]
- induction in relative fluorescence compared to non-treated controls [7]: four
- damage to the retina [8]: reduced damage to the retina
- biofilm formation ([1]; 1 μM): effectively blocked
- minimal inhibitory concentration (MIC) [2]: 32 µM
- decrease in cell counts ([9]; 1 mM): 3-4 log
- log killing ([10]; DFO-Ga 1 mM): 3.02 log
- biofilm formation under continuous flow ([6]; 1 μM, flow cell): completely blocks biofilm formation
- killing of cells in six-day old biofilm (propidium iodide staining) ([6]; 1 mM): causes death of cells throughout the mushroom-like structures
- killing relative to gentamicin ([11]; 1 mM, versus gentamicin 10 μg per ml): 10-100 times
- reduction of viable Staphylococcus aureus biofilm bacteria [12]: approximately 3 log units

Molecule: [Ga] [gallium]
- reduction in fluorescence [7]: two
- biofilm formation ([1]; 1 μM): effectively blocked
- killing of cells in six-day old biofilm (propidium iodide staining) ([6]; 1 mM): killing of cells in the outer regions of the biofilm only

Molecule: gentamicin
- biofilm formation ([1]; 0.1 μg per ml): does not affect biofilm formation
- decrease in cell counts ([9]; 50 μg/mL): 2 log
- log killing ([10]; Gm 50 μg/ml): 0.95 log
- killing of cells in six-day old biofilm (propidium iodide staining) ([6]; 50 μg/ml): killing of cells in the outer regions of the biofilm only
- reduction of viability ([11]; gentamicin 10 μg per ml): three
- scarring [13]: significant scarring persists
- time to resolution of the infection [13]: ≤ 120 h

Molecule: zinc-desferrioxamine
- corneal damage [14]: reduced corneal damage
- damage to the retina [8]: reduced damage to the retina

Reference: patent US8680148B2, “Metallo-desferrioxamine complexes and their use in the treatment of bacterial infections” (priority 2006, dated 2014)
